Test results reported in the kinase profiling compilation of Christmann-Franck et al. (2016).
Blank lines part the entries; values can stand above or below the compound they belong to.

Columns and labels:
Assay in all cases: radiometric filter-binding kinase assay
[1] = target: AURKB (human) (UniProt Q96GD4)
[2] = target: CDK2 CCNA2 (human) (UniProt P20248+P24941)
[3] = target: NTRK1 (human) (UniProt P04629)
[4] = target: INSRR (human) (UniProt P14616)
[5] = target: MINK1 (human) (UniProt Q8N4C8)
Chain of MINK1 (human) (Q8N4C8 whole entry, looked up): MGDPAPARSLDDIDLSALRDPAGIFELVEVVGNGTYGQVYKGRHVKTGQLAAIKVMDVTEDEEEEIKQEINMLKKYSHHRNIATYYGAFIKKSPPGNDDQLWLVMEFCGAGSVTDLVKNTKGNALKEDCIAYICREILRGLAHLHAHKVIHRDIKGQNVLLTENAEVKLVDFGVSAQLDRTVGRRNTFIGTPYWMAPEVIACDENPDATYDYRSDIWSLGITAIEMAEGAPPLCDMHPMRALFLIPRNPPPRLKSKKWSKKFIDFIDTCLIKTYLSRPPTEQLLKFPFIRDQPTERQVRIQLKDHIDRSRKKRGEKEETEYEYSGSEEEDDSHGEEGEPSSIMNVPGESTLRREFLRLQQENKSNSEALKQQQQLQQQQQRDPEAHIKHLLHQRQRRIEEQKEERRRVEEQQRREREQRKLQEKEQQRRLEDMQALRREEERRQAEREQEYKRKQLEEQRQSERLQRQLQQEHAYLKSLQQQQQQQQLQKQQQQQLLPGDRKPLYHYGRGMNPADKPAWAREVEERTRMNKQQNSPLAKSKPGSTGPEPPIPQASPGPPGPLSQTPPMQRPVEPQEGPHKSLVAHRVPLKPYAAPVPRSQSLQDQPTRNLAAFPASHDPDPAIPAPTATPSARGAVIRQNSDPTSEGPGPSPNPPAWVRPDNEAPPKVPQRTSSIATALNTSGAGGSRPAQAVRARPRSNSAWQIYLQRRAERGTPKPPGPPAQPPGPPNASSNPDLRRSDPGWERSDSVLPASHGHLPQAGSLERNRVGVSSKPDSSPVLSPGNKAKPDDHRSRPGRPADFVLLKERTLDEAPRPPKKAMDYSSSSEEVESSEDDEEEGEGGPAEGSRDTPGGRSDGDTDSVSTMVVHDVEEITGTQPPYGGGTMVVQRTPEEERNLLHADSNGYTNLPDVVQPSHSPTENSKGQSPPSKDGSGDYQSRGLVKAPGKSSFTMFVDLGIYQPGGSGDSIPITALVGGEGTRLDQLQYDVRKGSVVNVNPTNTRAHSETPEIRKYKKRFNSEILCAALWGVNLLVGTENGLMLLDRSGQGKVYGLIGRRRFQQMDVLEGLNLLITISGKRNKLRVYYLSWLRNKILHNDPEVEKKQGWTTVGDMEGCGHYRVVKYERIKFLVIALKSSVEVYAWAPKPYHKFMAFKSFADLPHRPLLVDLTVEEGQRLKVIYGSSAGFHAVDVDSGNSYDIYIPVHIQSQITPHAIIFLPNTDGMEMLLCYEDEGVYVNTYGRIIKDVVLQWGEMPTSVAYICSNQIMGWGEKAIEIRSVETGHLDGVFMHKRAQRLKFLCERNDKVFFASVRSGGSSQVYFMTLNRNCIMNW

[6] = target: CAMKK2 (human) (UniProt Q96RR4)
Chain of CAMKK2 (human) (Q96RR4 whole entry, looked up): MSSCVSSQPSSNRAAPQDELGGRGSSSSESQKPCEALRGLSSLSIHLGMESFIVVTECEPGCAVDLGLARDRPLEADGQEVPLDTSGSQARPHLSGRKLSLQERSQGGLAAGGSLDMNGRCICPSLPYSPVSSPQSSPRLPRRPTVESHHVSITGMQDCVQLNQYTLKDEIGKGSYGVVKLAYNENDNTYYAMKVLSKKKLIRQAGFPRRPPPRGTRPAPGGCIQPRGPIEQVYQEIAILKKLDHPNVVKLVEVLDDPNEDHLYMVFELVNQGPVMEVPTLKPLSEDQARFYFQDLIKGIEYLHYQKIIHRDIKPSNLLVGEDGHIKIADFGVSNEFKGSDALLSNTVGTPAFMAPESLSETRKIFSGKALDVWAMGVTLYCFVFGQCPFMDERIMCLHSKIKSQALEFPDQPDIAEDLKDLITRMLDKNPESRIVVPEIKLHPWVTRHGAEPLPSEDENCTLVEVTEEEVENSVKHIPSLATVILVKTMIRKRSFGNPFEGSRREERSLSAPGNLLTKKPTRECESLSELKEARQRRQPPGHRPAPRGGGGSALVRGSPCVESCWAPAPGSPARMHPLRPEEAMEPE

[7] = target: DYRK1A (human) (UniProt Q13627)
[8] = target: RIPK2 (human) (UniProt O43353)
[9] = target: CaMK1 (human) (UniProt Q14012)
[10] = target: SYK (human) (UniProt P43405)
[11] = target: EPHB3 (human) (UniProt P54753)
[12] = target: MARK4 (human) (UniProt Q96L34)
[13] = target: MARK3 (human) (UniProt P27448)
[14] = target: IGF1R (human) (UniProt P08069)
[15] = system: AKT2 (human), P31751 [S474D]
Chain of AKT2 (human), P31751 [S474D] (P31751 whole entry S474D, looked up): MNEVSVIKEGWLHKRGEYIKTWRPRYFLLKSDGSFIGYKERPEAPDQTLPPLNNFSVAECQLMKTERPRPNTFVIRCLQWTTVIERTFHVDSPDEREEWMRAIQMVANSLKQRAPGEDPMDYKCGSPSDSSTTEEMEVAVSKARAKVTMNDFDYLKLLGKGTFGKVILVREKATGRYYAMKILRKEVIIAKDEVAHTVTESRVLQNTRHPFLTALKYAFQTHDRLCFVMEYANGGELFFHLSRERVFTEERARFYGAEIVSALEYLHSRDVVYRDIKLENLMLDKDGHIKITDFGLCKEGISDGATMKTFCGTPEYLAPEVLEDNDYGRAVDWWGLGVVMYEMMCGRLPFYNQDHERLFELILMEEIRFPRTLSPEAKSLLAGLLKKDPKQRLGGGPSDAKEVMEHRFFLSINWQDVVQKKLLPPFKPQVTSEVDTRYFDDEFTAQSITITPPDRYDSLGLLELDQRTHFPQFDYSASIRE

[16] = target: MAPK13 (human) (UniProt O15264)
Chain of MAPK13 (human) (O15264 whole entry, looked up): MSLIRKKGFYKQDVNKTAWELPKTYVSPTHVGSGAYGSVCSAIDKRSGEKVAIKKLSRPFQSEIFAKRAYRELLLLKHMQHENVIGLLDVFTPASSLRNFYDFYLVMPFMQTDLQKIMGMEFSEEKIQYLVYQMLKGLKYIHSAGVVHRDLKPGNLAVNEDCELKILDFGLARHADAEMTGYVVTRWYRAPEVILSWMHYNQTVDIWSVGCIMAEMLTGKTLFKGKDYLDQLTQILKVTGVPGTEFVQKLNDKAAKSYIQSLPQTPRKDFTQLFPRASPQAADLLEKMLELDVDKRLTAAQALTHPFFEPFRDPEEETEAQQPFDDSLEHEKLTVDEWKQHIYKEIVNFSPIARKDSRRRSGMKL

[17] = target: YES1 (human) (UniProt P07947)
[18] = target: MAP3K11 (human) (UniProt Q16584)
[19] = target: MAP2K1 (human) (UniProt Q02750)
[20] = target: CHEK1 (human) (UniProt O14757)
Chain of CHEK1 (human) (O14757 whole entry, looked up): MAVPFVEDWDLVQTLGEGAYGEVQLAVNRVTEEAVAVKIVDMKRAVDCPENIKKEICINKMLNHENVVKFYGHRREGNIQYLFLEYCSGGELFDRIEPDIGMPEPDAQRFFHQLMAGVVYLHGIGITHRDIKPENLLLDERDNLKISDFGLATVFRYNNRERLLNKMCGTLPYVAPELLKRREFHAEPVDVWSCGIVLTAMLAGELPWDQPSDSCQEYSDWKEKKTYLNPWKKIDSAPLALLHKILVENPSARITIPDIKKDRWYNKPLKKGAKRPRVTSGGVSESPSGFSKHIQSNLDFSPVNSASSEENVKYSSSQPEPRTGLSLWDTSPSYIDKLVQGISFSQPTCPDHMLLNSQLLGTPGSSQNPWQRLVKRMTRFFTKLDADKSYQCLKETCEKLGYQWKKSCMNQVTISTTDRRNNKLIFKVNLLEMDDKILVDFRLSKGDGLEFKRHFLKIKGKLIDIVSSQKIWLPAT

[21] = target: CSNK2A1 (human) (UniProt P68400)
[22] = target: PRKCZ (human) (UniProt Q05513)
Chain of PRKCZ (human) (Q05513 whole entry, looked up): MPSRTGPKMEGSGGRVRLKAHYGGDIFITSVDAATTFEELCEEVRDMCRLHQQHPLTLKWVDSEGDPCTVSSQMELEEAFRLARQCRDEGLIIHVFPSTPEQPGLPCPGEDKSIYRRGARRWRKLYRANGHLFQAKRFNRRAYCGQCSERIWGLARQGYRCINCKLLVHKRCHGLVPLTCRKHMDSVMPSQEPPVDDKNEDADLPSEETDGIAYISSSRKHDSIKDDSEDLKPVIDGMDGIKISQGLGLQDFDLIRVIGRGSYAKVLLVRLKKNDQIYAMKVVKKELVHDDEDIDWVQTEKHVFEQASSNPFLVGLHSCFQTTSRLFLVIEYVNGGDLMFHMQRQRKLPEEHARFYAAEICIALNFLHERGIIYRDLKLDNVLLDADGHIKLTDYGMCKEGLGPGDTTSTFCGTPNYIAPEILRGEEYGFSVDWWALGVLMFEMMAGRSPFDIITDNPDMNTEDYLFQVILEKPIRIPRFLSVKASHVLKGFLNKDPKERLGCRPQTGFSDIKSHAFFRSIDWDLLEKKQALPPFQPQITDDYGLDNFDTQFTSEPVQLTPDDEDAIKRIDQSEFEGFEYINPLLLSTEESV

[23] = target: PRKACA (human) (UniProt P17612)
[24] = system: PRKAA1 or PRKAA2 (rat); settings: accession and sequence are those of the human protein
[25] = target: NUAK1 (human) (UniProt O60285)
Chain of NUAK1 (human) (O60285 whole entry, looked up): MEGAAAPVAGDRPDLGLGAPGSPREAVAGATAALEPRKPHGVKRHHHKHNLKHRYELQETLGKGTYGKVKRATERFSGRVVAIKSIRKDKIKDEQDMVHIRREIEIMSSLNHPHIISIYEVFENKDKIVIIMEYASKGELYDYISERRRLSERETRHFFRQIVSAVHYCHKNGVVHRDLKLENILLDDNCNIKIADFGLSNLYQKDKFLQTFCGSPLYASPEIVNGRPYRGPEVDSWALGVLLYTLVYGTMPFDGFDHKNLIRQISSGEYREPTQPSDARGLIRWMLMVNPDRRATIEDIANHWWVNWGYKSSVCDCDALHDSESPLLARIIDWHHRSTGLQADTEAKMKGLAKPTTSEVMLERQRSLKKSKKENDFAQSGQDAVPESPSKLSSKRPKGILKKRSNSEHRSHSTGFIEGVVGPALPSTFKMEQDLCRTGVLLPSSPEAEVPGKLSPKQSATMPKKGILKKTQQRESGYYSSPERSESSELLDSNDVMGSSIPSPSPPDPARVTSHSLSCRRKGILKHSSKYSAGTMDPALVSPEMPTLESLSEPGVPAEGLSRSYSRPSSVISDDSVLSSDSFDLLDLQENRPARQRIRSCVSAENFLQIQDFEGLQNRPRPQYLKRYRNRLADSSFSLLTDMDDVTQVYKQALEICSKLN

[26] = system: LCK (mouse); settings: accession and sequence are those of the human protein
[27] = target: MAPK10 (human) (UniProt P53779)
[28] = target: MAP3K9 (human) (UniProt P80192)
[29] = target: MKNK1 (human) (UniProt Q9BUB5)
[30] = target: PIM2 (human) (UniProt Q9P1W9)
[31] = target: PHKG1 (human) (UniProt Q16816)
[32] = target: SRC (human) (UniProt P12931)
[33] = target: MST4 (human) (UniProt Q9P289)
Chain of MST4 (human) (Q9P289 whole entry, looked up): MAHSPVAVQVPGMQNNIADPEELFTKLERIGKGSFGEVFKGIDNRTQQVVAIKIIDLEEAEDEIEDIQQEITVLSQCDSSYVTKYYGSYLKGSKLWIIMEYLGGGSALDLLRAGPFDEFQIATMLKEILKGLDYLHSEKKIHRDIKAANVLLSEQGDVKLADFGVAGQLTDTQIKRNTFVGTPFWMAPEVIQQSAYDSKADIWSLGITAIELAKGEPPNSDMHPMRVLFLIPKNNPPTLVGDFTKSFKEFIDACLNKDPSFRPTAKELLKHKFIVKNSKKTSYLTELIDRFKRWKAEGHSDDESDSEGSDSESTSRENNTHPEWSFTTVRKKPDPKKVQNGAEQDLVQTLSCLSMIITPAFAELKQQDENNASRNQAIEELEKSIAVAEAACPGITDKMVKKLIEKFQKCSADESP

[34] = target: JAK2 JH1 JH2 (human) (UniProt O60674)
[35] = target: INSR (human) (UniProt P06213)
[36] = target: PAK4 (human) (UniProt O96013)

- residual activity ([1]; compound 0.01 µM): 105%
- residual activity ([1]; compound 0.1 µM): 106%
- residual activity ([1]; compound 1.0 µM): 72%
- residual activity ([1]; compound 10.0 µM): 29%
- residual activity ([2]; compound 0.01 µM): 104%
- residual activity ([2]; compound 0.1 µM): 101%
- residual activity ([2]; compound 1.0 µM): 103%
- residual activity ([2]; compound 10.0 µM): 85%
- residual activity ([3]; compound 1.0 µM): 94%
- residual activity ([3]; compound 10.0 µM): 84%
- residual activity ([4]; compound 0.01 µM): 111%
- residual activity ([4]; compound 0.1 µM): 111%
- residual activity ([4]; compound 1.0 µM): 117%
- residual activity ([5]; compound 0.01 µM): 121%
- residual activity ([5]; compound 0.1 µM): 110%
- residual activity ([5]; compound 1.0 µM): 89%
- residual activity ([5]; compound 10.0 µM): 74%
- residual activity ([6]; compound 0.01 µM): 112%
- residual activity ([6]; compound 0.1 µM): 123%
- residual activity ([6]; compound 1.0 µM): 99%
- residual activity ([6]; compound 10.0 µM): 91%
- residual activity ([7]; compound 0.01 µM): 102%
- residual activity ([7]; compound 0.1 µM): 107%
- residual activity ([7]; compound 1.0 µM): 92%
- residual activity ([7]; compound 10.0 µM): 82%
- residual activity ([8]; compound 0.01 µM): 110%
- residual activity ([8]; compound 0.1 µM): 114%
- residual activity ([8]; compound 1.0 µM): 116%
- residual activity ([8]; compound 10.0 µM): 100%
- residual activity ([9]; compound 0.01 µM): 108%
- residual activity ([9]; compound 0.1 µM): 112%
- residual activity ([9]; compound 1.0 µM): 89%
- residual activity ([9]; compound 10.0 µM): 95%
- residual activity ([10]; compound 0.01 µM): 109%
- residual activity ([10]; compound 0.1 µM): 105%
- residual activity ([10]; compound 1.0 µM): 104%
- residual activity ([10]; compound 10.0 µM): 105%
- residual activity ([11]; compound 0.01 µM): 106%
- residual activity ([11]; compound 0.1 µM): 107%
- residual activity ([11]; compound 1.0 µM): 120%
- residual activity ([11]; compound 10.0 µM): 103%
- residual activity ([12]; compound 0.01 µM): 106%
- residual activity ([12]; compound 0.1 µM): 114%
- residual activity ([12]; compound 1.0 µM): 99%
- residual activity ([12]; compound 10.0 µM): 103%
- residual activity ([13]; compound 0.01 µM): 113%
- residual activity ([13]; compound 0.1 µM): 109%
- residual activity ([13]; compound 1.0 µM): 88%
- residual activity ([13]; compound 10.0 µM): 87%
- residual activity ([14]; compound 0.1 µM): 115%
- residual activity ([14]; compound 1.0 µM): 98%
- residual activity ([14]; compound 10.0 µM): 100%
- residual activity ([15]; compound 0.01 µM): 125%
- residual activity ([15]; compound 0.1 µM): 118%
- residual activity ([15]; compound 1.0 µM): 107%
- residual activity ([15]; compound 10.0 µM): 56%
- residual activity ([16]; compound 0.01 µM): 106%
- residual activity ([16]; compound 0.1 µM): 113%
- residual activity ([16]; compound 1.0 µM): 93%
- residual activity ([16]; compound 10.0 µM): 101%
- residual activity ([17]; compound 0.01 µM): 122%
- residual activity ([17]; compound 0.1 µM): 119%
- residual activity ([17]; compound 1.0 µM): 106%
- residual activity ([17]; compound 10.0 µM): 98%
- residual activity ([18]; compound 0.01 µM): 100%
- residual activity ([18]; compound 0.1 µM): 110%
- residual activity ([18]; compound 1.0 µM): 80%
- residual activity ([18]; compound 10.0 µM): 44%
- residual activity ([19]; compound 0.01 µM): 86%
- residual activity ([19]; compound 0.1 µM): 101%
- residual activity ([19]; compound 1.0 µM): 85%
- residual activity ([19]; compound 10.0 µM): 74%
- residual activity ([20]; compound 0.01 µM): 111%
- residual activity ([20]; compound 0.1 µM): 106%
- residual activity ([20]; compound 1.0 µM): 96%
- residual activity ([20]; compound 10.0 µM): 103%
- residual activity ([21]; compound 0.01 µM): 103%
- residual activity ([21]; compound 0.1 µM): 104%
- residual activity ([21]; compound 1.0 µM): 91%
- residual activity ([21]; compound 10.0 µM): 111%
- residual activity ([22]; compound 0.01 µM): 113%
- residual activity ([22]; compound 0.1 µM): 105%
- residual activity ([22]; compound 1.0 µM): 74%
- residual activity ([22]; compound 10.0 µM): 23%
- residual activity ([23]; compound 0.01 µM): 103%
- residual activity ([23]; compound 0.1 µM): 111%
- residual activity ([23]; compound 1.0 µM): 102%
- residual activity ([23]; compound 10.0 µM): 84%
- residual activity ([24]; compound 0.01 µM): 107%
- residual activity ([24]; compound 0.1 µM): 111%
- residual activity ([24]; compound 1.0 µM): 91%
- residual activity ([24]; compound 10.0 µM): 44%
- residual activity ([25]; compound 0.01 µM): 120%
- residual activity ([25]; compound 0.1 µM): 105%
- residual activity ([25]; compound 1.0 µM): 47%
- residual activity ([25]; compound 10.0 µM): 9%
- residual activity ([26]; compound 0.01 µM): 112%
- residual activity ([26]; compound 0.1 µM): 107%
- residual activity ([26]; compound 1.0 µM): 97%
- residual activity ([26]; compound 10.0 µM): 99%
- residual activity ([27]; compound 0.01 µM): 106%
- residual activity ([27]; compound 0.1 µM): 106%
- residual activity ([27]; compound 10.0 µM): 97%
- residual activity ([28]; compound 0.01 µM): 110%
- residual activity ([28]; compound 0.1 µM): 111%
- residual activity ([28]; compound 1.0 µM): 93%
- residual activity ([28]; compound 10.0 µM): 78%
- residual activity ([29]; compound 0.01 µM): 106%
- residual activity ([29]; compound 0.1 µM): 108%
- residual activity ([29]; compound 1.0 µM): 111%
- residual activity ([29]; compound 10.0 µM): 92%
- residual activity ([30]; compound 0.01 µM): 97%
- residual activity ([30]; compound 1.0 µM): 97%
- residual activity ([30]; compound 10.0 µM): 110%
- residual activity ([31]; compound 0.01 µM): 106%
- residual activity ([31]; compound 0.1 µM): 108%
- residual activity ([31]; compound 1.0 µM): 101%
- residual activity ([31]; compound 10.0 µM): 78%
- residual activity ([32]; compound 0.01 µM): 101%
- residual activity ([32]; compound 0.1 µM): 105%
- residual activity ([32]; compound 1.0 µM): 95%
- residual activity ([33]; compound 0.01 µM): 112%
- residual activity ([33]; compound 0.1 µM): 108%
- residual activity ([33]; compound 1.0 µM): 102%
- residual activity ([33]; compound 10.0 µM): 102%
- residual activity ([34]; compound 1.0 µM): 108%
- residual activity ([34]; compound 10.0 µM): 99%
- residual activity ([35]; compound 0.01 µM): 101%
- residual activity ([35]; compound 0.1 µM): 103%
- residual activity ([35]; compound 1.0 µM): 101%
- residual activity ([35]; compound 10.0 µM): 89%
- residual activity ([36]; compound 0.01 µM): 108%
- residual activity ([36]; compound 0.1 µM): 117%
- residual activity ([36]; compound 1.0 µM): 100%
Structure (SMILES): CNc1nc(-c2ccc3c(N)n[nH]c3c2)cc(N2C[C@@H](C(=O)NC3CCCCC3)CC[C@H]2C)n1

- residual activity ([1]; compound 100.0 µM): 93%
- residual activity ([2]; compound 100.0 µM): 94%
- residual activity ([3]; compound 100.0 µM): 65%
- residual activity ([4]; compound 100.0 µM): 103%
- residual activity ([5]; compound 100.0 µM): 62%
- residual activity ([6]; compound 100.0 µM): 99%
- residual activity ([7]; compound 100.0 µM): 113%
- residual activity ([8]; compound 100.0 µM): 46%
- residual activity ([9]; compound 100.0 µM): 45%
- residual activity ([10]; compound 100.0 µM): 103%
- residual activity ([11]; compound 100.0 µM): 48%
- residual activity ([12]; compound 100.0 µM): 81%
- residual activity ([13]; compound 100.0 µM): 96%
- residual activity ([14]; compound 100.0 µM): 109%
- residual activity ([15]; compound 100.0 µM): 37%
- residual activity ([16]; compound 100.0 µM): 109%
- residual activity ([17]; compound 100.0 µM): 52%
- residual activity ([18]; compound 100.0 µM): 83%
- residual activity ([19]; compound 100.0 µM): 103%
- residual activity ([20]; compound 100.0 µM): 196%
- residual activity ([21]; compound 100.0 µM): 51%
- residual activity ([22]; compound 100.0 µM): 97%
- residual activity ([23]; compound 100.0 µM): 90%
- residual activity ([24]; compound 100.0 µM): 71%
- residual activity ([25]; compound 100.0 µM): 44%
- residual activity ([26]; compound 100.0 µM): 112%
- residual activity ([27]; compound 100.0 µM): 100%
- residual activity ([28]; compound 100.0 µM): 58%
- residual activity ([29]; compound 100.0 µM): 99%
- residual activity ([30]; compound 100.0 µM): 58%
- residual activity ([31]; compound 100.0 µM): 86%
- residual activity ([32]; compound 100.0 µM): 40%
- residual activity ([33]; compound 100.0 µM): 67%
- residual activity ([34]; compound 100.0 µM): 71%
- residual activity ([35]; compound 100.0 µM): 141%
- residual activity ([36]; compound 100.0 µM): 70%
Structure (SMILES): Cc1cc(N=Nc2cc(S(=O)(=O)O)c(C)cc2C)c(N)cc1O
